{"source": "paper PMC12042115", "about": "(mLife, 2025)", "tested_on": "wild‐type BCG cells", "format": "cell-based, M. bovis BCG", "conditions": "for Mean_Ratio (GDI5755_3d vs DMSO_3d): down-regulated, 3 d; for Mean Ratio: GDI5755_2d vs DMSO_2d; for Mean Ratio / Mean Ratio (GDI5755_2d vs DMSO_2d): up-regulated; for Mean Ratio (GDI5755_2d vs DMSO_2d): 2d", "note": "Like-named read-outs stand apart in the source and are kept apart here."}
{"smiles": "O=C(Oc1ccc(Cl)cc1)c1ccc(N2CCOCC2)c([N+](=O)[O-])c1", "note": "[GDI‐5755]", "values": [{"measurement": "Mean_Ratio (GDI5755_3d vs DMSO_3d)", "setting": "protein A0A0H3M2P5, BCG_0207 (Rv0170), MCE-family protein mce1B", "result": 0.7}, {"measurement": "Mean Ratio", "setting": "protein A0A0H3M2Q0 Probable conserved mce associated membrane protein", "result": 1.29}, {"measurement": "Mean Ratio", "setting": "protein A0A0H3M2Q5 Probable conserved transmembrane protein", "result": 1.31}, {"measurement": "Mean Ratio (GDI5755_2d vs DMSO_2d)", "setting": "protein A0A0H3M2T8 Possible conserved membrane protein mmpS5", "result": 1.38}, {"measurement": "Mean Ratio", "setting": "protein A0A0H3M3A7 3-hydroxyacyl-CoA dehydrogenase", "result": 1.27}, {"measurement": "Mean_Ratio (GDI5755_3d vs DMSO_3d)", "setting": "protein A0A0H3M3B6, BCG_1227 (Rv1165), Large ribosomal subunit assembly factor BipA", "result": 0.749}, {"measurement": "Mean_Ratio (GDI5755_3d vs DMSO_3d)", "setting": "protein A0A0H3M3D2, BCG_0932 (Rv0880), Possible transcriptional regulatory protein (Possibly marR-family)", "result": 0.738}, {"measurement": "Mean_Ratio (GDI5755_3d vs DMSO_3d)", "setting": "protein A0A0H3M3H3, BCG_1314 (Rv1254), Probable acyltransferase", "result": 0.748}, {"measurement": "Mean Ratio", "setting": "protein A0A0H3M3I2 Uncharacterized protein", "result": 1.28}, {"measurement": "Mean Ratio", "setting": "protein A0A0H3M3J3 Probable periplasmic oligopeptide-binding lipoprotein oppA", "result": 1.27}, {"measurement": "Mean Ratio (GDI5755_2d vs DMSO_2d)", "setting": "protein A0A0H3M3L0 Conserved hypothetical transmembrane protein", "result": 1.38}, {"measurement": "Mean Ratio", "setting": "protein A0A0H3M3S8 Lipoarabinomannan carrier protein LprG", "result": 1.31}, {"measurement": "Mean Ratio", "setting": "protein A0A0H3M3T4 Possible conserved membrane protein", "result": 1.31}, {"measurement": "Mean Ratio", "setting": "protein A0A0H3M3X9 Probable cation transporter P-type atpase D ctpD", "result": 1.31}, {"measurement": "Mean_Ratio (GDI5755_3d vs DMSO_3d)", "setting": "protein A0A0H3M4A0, BCG_1633 (Rv1595), L-aspartate oxidase", "result": 0.7}, {"measurement": "Mean Ratio (GDI5755_2d vs DMSO_2d)", "setting": "protein A0A0H3M4G0 Lipoprotein lprB", "result": 1.35}, {"measurement": "Mean_Ratio (GDI5755_3d vs DMSO_3d)", "setting": "protein A0A0H3M4I9, BCG_1379c (Rv1318c), Possible adenylate cyclase", "result": 0.7}, {"measurement": "Mean_Ratio (GDI5755_3d vs DMSO_3d)", "setting": "protein A0A0H3M4L2, BCG_1760c (Rv1721c), Antitoxin VapB12", "result": 0.7}, {"measurement": "Mean Ratio", "setting": "protein A0A0H3M4W6 DUF1490 family protein", "result": 1.26}, {"measurement": "Mean_Ratio (GDI5755_3d vs DMSO_3d)", "setting": "protein A0A0H3M5A9, BCG_1670c (Rv1632c), DUF402 domain-containing protein", "result": 0.74}, {"measurement": "Mean Ratio (GDI5755_2d vs DMSO_2d)", "setting": "protein A0A0H3M5C0 RNA polymerase sigma factor", "result": 1.33}, {"measurement": "Mean_Ratio (GDI5755_3d vs DMSO_3d)", "setting": "protein A0A0H3M5G5, BCG_1251, alternative RNA polymerase sigma factor sigI", "result": 0.7}, {"measurement": "Mean Ratio", "setting": "protein A0A0H3M5I2 Uncharacterized protein", "result": 1.28}, {"measurement": "Mean Ratio", "setting": "protein A0A0H3M5J1 Probable serine protease htrA", "result": 1.26}, {"measurement": "Mean Ratio (GDI5755_2d vs DMSO_2d)", "setting": "protein A0A0H3M5K5 DUF4129 domain-containing protein", "result": 1.38}, {"measurement": "Mean_Ratio (GDI5755_3d vs DMSO_3d)", "setting": "protein A0A0H3M5K7, BCG_1305c (Rv1245c), Probable short-chain type dehydrogenase/reductase", "result": 0.7}, {"measurement": "Mean Ratio (GDI5755_2d vs DMSO_2d)", "setting": "protein A0A0H3M5K8 Methylenetetrahydrofolate reductase", "result": 1.33}, {"measurement": "Mean_Ratio (GDI5755_3d vs DMSO_3d)", "setting": "protein A0A0H3M5L3, BCG_1311c (Rv1251c), Uncharacterized protein", "result": 0.76}, {"measurement": "Mean Ratio", "setting": "protein A0A0H3M5L8 1-acylglycerol-3-phosphate O-acyltransferase", "result": 1.26}, {"measurement": "Mean Ratio (GDI5755_2d vs DMSO_2d)", "setting": "protein A0A0H3M5V5 Possible flavoprotein", "result": 1.33}, {"measurement": "Mean Ratio (GDI5755_2d vs DMSO_2d)", "setting": "protein A0A0H3M5V7 Possible transmembrane protein", "result": 1.32}, {"measurement": "Mean Ratio", "setting": "protein A0A0H3M5V9 DUF3145 domain-containing protein", "result": 1.32}, {"measurement": "Mean Ratio (GDI5755_2d vs DMSO_2d)", "setting": "protein A0A0H3M6F8 Probable 'component linked with the assembly of cytochrome' transport transmembrane ATP-binding protein ABC transporter cydC", "result": 1.33}, {"measurement": "Mean_Ratio (GDI5755_3d vs DMSO_3d)", "setting": "protein A0A0H3M6P3, BCG_1740c (Rv1702c), HNH nuclease domain-containing protein", "result": 0.759}, {"measurement": "Mean Ratio", "setting": "protein A0A0H3M6T8 Uncharacterized protein", "result": 1.25}, {"measurement": "Mean Ratio (GDI5755_2d vs DMSO_2d)", "setting": "protein A0A0H3M7A1 Probable conserved membrane protein", "result": 1.33}, {"measurement": "Mean Ratio", "setting": "protein A0A0H3M7A2 (2E)-enoyl-[ACP] glycyltransferase", "result": 1.27}, {"measurement": "Mean Ratio", "setting": "protein A0A0H3M7D2 Quinone oxidoreductase", "result": 1.25}, {"measurement": "Mean_Ratio (GDI5755_3d vs DMSO_3d)", "setting": "protein A0A0H3M7E6, BCG_0206 (Rv0169), MCE-family protein mce1A", "result": 0.7}, {"measurement": "Mean_Ratio (GDI5755_3d vs DMSO_3d)", "setting": "protein A0A0H3M7F0, BCG_0211 (Rv0174), MCE-family protein mce1F", "result": 0.7}, {"measurement": "Mean Ratio (GDI5755_2d vs DMSO_2d)", "setting": "protein A0A0H3M7F7 Hemerythrin-like domain-containing protein", "result": 1.39}, {"measurement": "Mean Ratio", "setting": "protein A0A0H3M7J3 UspA domain-containing protein", "result": 1.27}, {"measurement": "Mean Ratio", "setting": "protein A0A0H3M7L3 Succinate dehydrogenase [membrane anchor subunit]", "result": 1.25}, {"measurement": "Mean Ratio", "setting": "protein A0A0H3M7L4 Possible transmembrane protein dedA", "result": 1.29}, {"measurement": "Mean Ratio", "setting": "protein A0A0H3M7L9 Probable arsenic-transport integral membrane protein arsC", "result": 1.30}, {"measurement": "Mean Ratio", "setting": "protein A0A0H3M7M0 Posible transcriptional regulatory protein", "result": 1.27}, {"measurement": "Mean_Ratio (GDI5755_3d vs DMSO_3d)", "setting": "protein A0A0H3M7M6, BCG_2876 (Rv2856), Nickel/cobalt efflux system", "result": 0.7}, {"measurement": "Mean Ratio", "setting": "protein A0A0H3M7N4 Possible secreted protease", "result": 1.32}, {"measurement": "Mean_Ratio (GDI5755_3d vs DMSO_3d)", "setting": "protein A0A0H3M7R0, BCG_0355, Possible beta-1,3-glucanase", "result": 0.7}, {"measurement": "Mean Ratio", "setting": "protein A0A0H3M7R4 Probable membrane protein", "result": 1.30}, {"measurement": "Mean_Ratio (GDI5755_3d vs DMSO_3d)", "setting": "protein A0A0H3M7T2, BCG_2131, Uncharacterized protein", "result": 0.742}, {"measurement": "Mean_Ratio (GDI5755_3d vs DMSO_3d)", "setting": "protein A0A0H3M7W0, BCG_2977 (Rv2956), Methyltransferase FkbM domain-containing protein", "result": 0.7}, {"measurement": "Mean Ratio", "setting": "protein A0A0H3M7X0 Probable conserved transmembrane protein", "result": 1.28}, {"measurement": "Mean Ratio", "setting": "protein A0A0H3M7X3 Probable conserved transmembrane protein", "result": 1.32}, {"measurement": "Mean_Ratio (GDI5755_3d vs DMSO_3d)", "setting": "protein A0A0H3M7Y1, BCG_0442 (Rv0404), Probable fatty-acid-CoA ligase fadD30", "result": 0.7}, {"measurement": "Mean_Ratio (GDI5755_3d vs DMSO_3d)", "setting": "protein A0A0H3M7Y6, BCG_2210 (Rv2194), Cytochrome bc1 complex cytochrome c subunit, qcrC", "result": 0.747}, {"measurement": "Mean Ratio", "setting": "protein A0A0H3M8J5 Protein translocase subunit SecE", "result": 1.31}, {"measurement": "Mean Ratio (GDI5755_2d vs DMSO_2d)", "setting": "protein A0A0H3M8K7 DUF4333 domain-containing protein", "result": 1.33}, {"measurement": "Mean Ratio", "setting": "protein A0A0H3M8L8 Probable FeIII-dicitrate-binding periplasmic lipoprotein fecB", "result": 1.27}, {"measurement": "Mean Ratio", "setting": "protein A0A0H3M8M0 Conserved hypothetical threonine rich protein", "result": 1.26}, {"measurement": "Mean Ratio", "setting": "protein A0A0H3M8Q9 Probable short-chain type dehydrogenase/reductase", "result": 1.27}, {"measurement": "Mean_Ratio (GDI5755_3d vs DMSO_3d)", "setting": "protein A0A0H3M8T3, BCG_3410 (Rv3340), Probable O-acetylhomoserine sulfhydrylase metC", "result": 0.7}, {"measurement": "Mean Ratio", "setting": "protein A0A0H3M8V5 Possible transcriptional regulatory protein (Probably tetR-family)", "result": 1.29}, {"measurement": "Mean_Ratio (GDI5755_3d vs DMSO_3d)", "setting": "protein A0A0H3M8X7, BCG_3431 (Rv3359), Possible oxidoreductase", "result": 0.737}, {"measurement": "Mean Ratio (GDI5755_2d vs DMSO_2d)", "setting": "protein A0A0H3M8X9 Probable oxidase", "result": 1.33}, {"measurement": "Mean_Ratio (GDI5755_3d vs DMSO_3d)", "setting": "protein A0A0H3M8Y4, BCG_3436c (Rv3364c), Roadblock/LAMTOR2 domain-containing protein/Serine protease inhibitor", "result": 0.75}]}
